For data set [1], the target named is T1, human EP4 (Homo sapiens, UniProt P35408).
T1 construct: expressed in transfected cells; host or cells: HEK293 cells transduced with EP4 BacMam virus (virus generated in SF9 cells)
Nature of the data set: cAMP Gs functional assay (HTRF cAMP dynamic-2) in HEK293 cells transfected with EP4 Bacmam virus. In kind it is cell-based. The following applies: for Emax: HEK293, HEK293 cells expressing human EP4; for Emax / cAMP human EP4 Emax: positive control 10 μM PGE2; for EC50: HEK293 cells expressing human EP4, 30 mins at 37° C., mid-point of the curve, read-out: cAMP human EP4 pEC50 (converted); for cAMP human EP4 Emax: HEK293 cells expressing human EP4, unit assumed. As for the experimental part: Cloning, Baculovirus generation, large scale infection of HEK293 cells and membrane preparation: Human prostaglandin E2 receptor 4 (EP4) was cloned into pBacMam expression vector (GeneScript, UK). Transposition of EP4 DNA was performed using Invitrogen's Bac-to-Bac Baculovirus Expression Systems. P0 baculovirus was generated by transfecting SF9 Cells with bacmid DNA using Cellfectin II transfection reagent (ThermoFisher Scientific, UK). Following P0 generation P1 virus was then generated ready for large scale infection and membrane preparation. HEK293 cells were grown in DMEM (ThermoFisher Scientific, UK), supplemented with 10% heat inactivated fetal bovine serum (FBS). Cells were infected at a seeding density of 3.5 million cells/mL in 500 cm^3 flasks at 5% v/v EP4 Bacman. Expression was carried out over a 36 hr period at 37° C. with 5% CO2. The cells were removed using PBS and a cell scrapper. The cell culture was centrifuged at 2500 RPM for 10 mins at 4° C. The supernatant was then poured off and the pellet stored at −80° C. The pellet was defrosted and re-suspended in 15 mL of homogenising buffer (20 mM HEPES, 10 mM EDTA, pH 7.4). Then homogenised in mechanical homogeniser (VMR) for 10 seconds. The membrane was centrifuged in centrifuge tubes at 40,000 g for 15 mins at 4° C. The supernatant was poured away and re-suspended in 15 mL of homogenising buffer. Homogenised for 20 seconds. The membrane was centrifuged at 40,000 g for 45 mins at 4° C. The membrane was re-suspended in 3 mL of storage buffer (20 mM HEPES, 0.1 mM EDTA, pH 7.4) mixing well. The resulting membranes were then stored at −80° C. cAMP Gs Functional Assay: CAMP production following EP4 receptor activation was determined using the Homogeneous Time-Resolved Fluorescence (HTRF) CAMP dynamic-2 assay (Cisbio, France). HEK293 cells were transfected using a 0.5% EP4 Bacmam virus for 36 hours, before dissociating the cells, and freezing at −150° C. On the day of testing, increasing concentration of test compounds, alongside positive controls (10 μM PGE2 (Tocris, Abingdon, UK)) and negative control (DMSO (Sigma-Aldrich, UK) were added to a ProxiPlate-384 Plus, White 384-shallow well Mircoplate, (PerkinElmer, USA) using the ECHO dispense. Cells were defrosted in a water bath and resuspended in DMEM supplemented with 10% FBS before centrifuging at 1200 RPM for 5 mins to form a pellet. The pellet was resuspended in assay buffer (DMEM+0.5 mM IBMX (Tocris, Abingdon, UK)) to 0.5×10^6 cells/mL. Cell suspension, for a final assay concentration of 5000 cell/well was added using the multidrop to the pre-dispensed assay plate. The plate was then incubated at 37° C. for 30 mins, with 5% CO2. The CAMP production was determined as manufacturer's instructions, before plates were read on a PheraStar fluorescence plate reader (BMG LabTech, Germany).
For orientation: Time-resolved FRET reads energy transfer from a long-lived donor to a nearby acceptor.

Data set [2] can be described thus: Unidirectional Caco-2 cell permeability assay. Type of data set: in vitro ADME. Particulars: human, Caco-2, 10 μM, apical pH 6.5, basolateral pH 7.4, 1 hour, 37° C., n=2. As to the method:
(§1) Caco-2 cells (ECACC) were seeded onto 24-well Transwell plates at 2×10^5 cells per well and used in confluent monolayers after a 21 day culture at 37° C. under 5% CO2. Test compounds were incubated at 10 μM, 0.2% DMSO final, n=2 in assay buffer (Hanks balanced salt solution supplemented with 25 mM HEPES, adjusted to pH 6.5). Hanks balanced salt solution supplemented with 25 mM HEPES, adjusted to pH 7.4 (0.2% DMSO final) was used for the basolateral chamber (as receiver).
(§2) Incubations were performed at 37° C., with samples removed from both donor and acceptor chambers at T=0 and 1 hour and compound analysed by mass spectrometry (LC-MS/MS) including an analytical internal standard (0.5 μM carbamazepine).
(§3) Apparent permeability (Papp) values are shown in Table 3 and were determined from the relationship:
(§4) Where V is the volume of each Transwell compartment (apical 125 μL, basolateral 600 μL), and concentrations are the relative MS responses for compound (normalized to internal standard) in the donor chamber before incubation and acceptor chamber at the end of the incubation Area=area of cells exposed for drug transfer (0.33 cm^2).
(§5) Lucifer Yellow (LY) was added to the apical buffer in all wells to assess viability of the cell layer. As LY cannot freely permeate lipophilic barriers, a high degree of LY transport indicates poor integrity of the cell layer and wells with a LY Papp>10×10^6 cm/s were rejected.
(§6) Compound recovery from the wells was determined from MS responses (normalized to internal standard) in donor and acceptor chambers at the end of incubation compared to response in the donor chamber pre-incubation.
On the technique in general: Caco-2 monolayers are a common model of the intestinal barrier.

Data set [3] relates to Caco-2 cells. The data set is described as follows: Unidirectional Caco-2 cell permeability assay. The following applies: 10 μM, apical pH 6.5, basolateral pH 7.4, 1 hour, 37° C., n=2. Type of data set: in vitro ADME. As to the method:
as §1, §2, §3, §4, §5, §6

T1 sequence (P35408 whole entry): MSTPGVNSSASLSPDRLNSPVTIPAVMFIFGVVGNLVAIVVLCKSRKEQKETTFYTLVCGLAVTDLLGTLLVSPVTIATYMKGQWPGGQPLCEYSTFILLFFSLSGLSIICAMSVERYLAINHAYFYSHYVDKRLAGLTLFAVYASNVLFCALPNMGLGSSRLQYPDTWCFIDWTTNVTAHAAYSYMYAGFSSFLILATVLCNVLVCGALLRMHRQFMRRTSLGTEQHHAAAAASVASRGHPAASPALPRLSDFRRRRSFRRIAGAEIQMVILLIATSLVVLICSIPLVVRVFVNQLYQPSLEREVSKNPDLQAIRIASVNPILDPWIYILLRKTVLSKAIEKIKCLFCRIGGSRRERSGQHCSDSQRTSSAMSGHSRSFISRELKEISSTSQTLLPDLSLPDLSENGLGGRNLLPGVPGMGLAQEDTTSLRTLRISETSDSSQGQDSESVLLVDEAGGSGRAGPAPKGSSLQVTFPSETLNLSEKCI

As a reminder, the Emax is the size of the effect at its maximum, as opposed to the concentration needed. In general, Papp A→B refers to how fast a substance crosses the layer from the apical side. On to `Cc1cc(O)ccc1-c1cccc(C(O)CCN2CCC(=O)N2CCc2ccc(C(=O)O)cc2)c1` (racemic) [1; racemate], for which, in data set [1], the Emax amounted to 97% and the EC50 is 3.98 nM. Also, in data set [2], the Papp A→B at 1 h, 10 μM turned out to be 0.68 ×10⁻⁶ cm/s.

With `Cc1cc(C(N)=O)ccc1-c1cccc(C(O)CCN2CCC(=O)N2CCc2ccc(C(=O)O)cc2)c1` (racemic) [2; racemate], in data set [1], the Emax was 99% and the EC50 is 3.16 nM.

`Cc1cc(S(N)(=O)=O)ccc1-c1cccc(C(O)CCN2CCC(=O)N2CCc2ccc(C(=O)O)cc2)c1` (racemic) [3; racemate]: in data set [1], the Emax stood at 97% and the EC50 was 2.51 nM. For the same molecule, in data set [2], the Papp A→B at 1 h, 10 μM stood at 0.3 ×10⁻⁶ cm/s.

Regarding `Cc1cc(OS(N)(=O)=O)ccc1-c1cccc(C(O)CCN2CCC(=O)N2CCc2ccc(C(=O)O)cc2)c1` (racemic) [4; racemate], in data set [1], the Emax is 97% and the EC50 was 6.31 nM.

`Cc1cc(C(N)=O)ccc1-c1cccc(C(O)CCN2CCC(=O)N2CCc2cc(F)c(C(=O)O)c(F)c2)c1` (racemic) [5; racemate]: in data set [1], the maximal response (Emax) worked out at 97% and the EC50 was 50.1 nM.

As for `Cc1cc(C(N)=O)ccc1-c1cccc(C(O)CCN2CCC(=O)N2CCc2ccc(-c3nnn[nH]3)cc2)c1` (racemic) [9; racemate], in data set [1], the maximum response (Emax) was determined as 97% and the EC50 is 0.158 nM. Moreover, the Papp A→B at 1 h, 10 μM in data set [2] was < 0.1 ×10⁻⁶ cm/s.

Turning to `Cc1cc(O)ccc1-c1cccc(C(O)CCN2CCC(=O)N2CCc2ccc(C(=O)O)cc2)c1` (single isomer, unassigned) [1; isomer 1], in data set [1], the Emax stood at 97% and the EC50 is 50.1 nM. Also, the Papp A→B at 1 h, 10 μM in data set [2] was 0.86 ×10⁻⁶ cm/s.

For the molecule `Cc1cc(O)ccc1-c1cccc(C(O)CCN2CCC(=O)N2CCc2ccc(C(=O)O)cc2)c1` (single isomer, unassigned) [1; isomer 2], in data set [1], the EC50 was 2 nM and the cAMP human EP4 Emax was found to be 99%.

For `Cc1cc(C(N)=O)ccc1-c1cccc(C(O)CCN2CCC(=O)N2CCc2ccc(C(=O)O)cc2)c1` (single isomer, unassigned) [2; isomer 1], in data set [1], the Emax is 95% and the EC50 was 158 nM. For the same molecule, in data set [2], the Papp A→B at 1 h, 10 μM was < 0.29 ×10⁻⁶ cm/s.

Consider `Cc1cc(C(N)=O)ccc1-c1cccc(C(O)CCN2CCC(=O)N2CCc2ccc(C(=O)O)cc2)c1` (single isomer, unassigned) [2; isomer 2], for which, in data set [1], the EC50 is 0.501 nM and the cAMP human EP4 Emax worked out at 98%. In addition, the “Caco-2 Mean Papp A-B” value in data set [3] is given as <0.47 10^−6 cm/s.

As for `Cc1cc(S(N)(=O)=O)ccc1-c1cccc(C(O)CCN2CCC(=O)N2CCc2ccc(C(=O)O)cc2)c1` (single isomer, unassigned) [3; isomer 1], in data set [1], the Emax worked out at 93% and the EC50 is 39.8 nM. Moreover, in data set [3], the “Caco-2 Mean Papp A-B” value is recorded as 0.23 10^−6 cm/s.

On to `Cc1cc(S(N)(=O)=O)ccc1-c1cccc(C(O)CCN2CCC(=O)N2CCc2ccc(C(=O)O)cc2)c1` (single isomer, unassigned) [3; isomer 2], for which, in data set [1], the EC50 was 1.26 nM and the cAMP human EP4 Emax stood at 98%. In data set [3], the “Caco-2 Mean Papp A-B” value was 0.72 10^−6 cm/s.

For the molecule `Cc1cc(OS(N)(=O)=O)ccc1-c1cccc(C(O)CCN2CCC(=O)N2CCc2ccc(C(=O)O)cc2)c1` (single isomer, unassigned) [4; isomer 1], in data set [1], the Emax is 93% and the EC50 was 251 nM. Moreover, the “Caco-2 Mean Papp A-B” value in data set [3] is 0.3 10^−6 cm/s.

Take `Cc1cc(OS(N)(=O)=O)ccc1-c1cccc(C(O)CCN2CCC(=O)N2CCc2ccc(C(=O)O)cc2)c1` (single isomer, unassigned) [4; isomer 2]: in data set [1], the EC50 was 2.51 nM and the cAMP human EP4 Emax is 97%. For the same molecule, the “Caco-2 Mean Papp A-B” value in data set [3] is on record as 0.67 10^−6 cm/s.

Take `Cc1cc(C(N)=O)ccc1-c1cccc(C(O)CCN2CCC(=O)N2CCc2cc(F)c(C(=O)O)c(F)c2)c1` (single isomer, unassigned) [5; isomer 1]: in data set [1], the Emax amounted to 88% and the EC50 is 794 nM.

As for `Cc1cc(C(N)=O)ccc1-c1cccc(C(O)CCN2CCC(=O)N2CCc2cc(F)c(C(=O)O)c(F)c2)c1` (single isomer, unassigned) [5; isomer 2], in data set [1], the EC50 is 15.8 nM and the cAMP human EP4 Emax came out at 96%. Also, the Papp A→B at 1 h, 10 μM in data set [2] was < 0.1 ×10⁻⁶ cm/s.

Take `Cc1cc(S(N)(=O)=O)ccc1-c1cccc(C(O)CCN2CCC(=O)N2CCc2ccc(C(=O)O)c(O)c2)c1` (single isomer, unassigned) [6; isomer 1]: in data set [1], the Emax worked out at 97% and the EC50 was 3.98 nM. Besides, in data set [2], the Papp A→B at 1 h, 10 μM was < 0.1 ×10⁻⁶ cm/s.

On to `Cc1cc(S(N)(=O)=O)ccc1-c1cccc(C(O)CCN2CCC(=O)N2CCc2ccc(C(=O)O)c(O)c2)c1` (single isomer, unassigned) [6; isomer 2], for which, in data set [1], the EC50 is 50.1 nM and the cAMP human EP4 Emax came to 96%.

Consider `Cc1cc(C(N)=O)ccc1-c1cccc(C(O)CCN2CCC(=O)N2CCc2ccc(C(=O)O)c(O)c2)c1` (single isomer, unassigned) [7; isomer 1], for which, in data set [1], the Emax stood at 99% and the EC50 was 3.98 nM. The apparent permeability from apical to basolateral (Papp A→B) at 1 h, 10 μM in data set [2] is < 0.1 ×10⁻⁶ cm/s.

On to `Cc1cc(C(N)=O)ccc1-c1cccc(C(O)CCN2CCC(=O)N2CCc2ccc(C(=O)O)c(O)c2)c1` (single isomer, unassigned) [7; isomer 2], for which, in data set [1], the EC50 is 100 nM and the cAMP human EP4 Emax is 97%. For the same molecule, the “Caco-2 Mean Papp A-B” value in data set [3] is reported as <0.1 10^−6 cm/s.

In the case of `Cc1cc(S(N)(=O)=O)ccc1-c1cccc(C(O)CCN2CCC(=O)N2CCc2cc(F)c(C(=O)O)c(F)c2)c1` (single isomer, unassigned) [8; isomer 1], in data set [1], the Emax worked out at 96% and the EC50 was 2510 nM.

Consider `Cc1cc(S(N)(=O)=O)ccc1-c1cccc(C(O)CCN2CCC(=O)N2CCc2cc(F)c(C(=O)O)c(F)c2)c1` (single isomer, unassigned) [8; isomer 2], for which, in data set [1], the EC50 was 31.6 nM and the cAMP human EP4 Emax was 99%. In data set [2], the apical-to-basolateral permeability (Papp A→B) at 1 h, 10 μM was < 0.3 ×10⁻⁶ cm/s.

On to `Cc1cc(C(N)=O)ccc1-c1cccc(C(O)CCN2CCC(=O)N2CCc2ccc(-c3nnn[nH]3)cc2)c1` (single isomer, unassigned) [9; isomer 1], for which, in data set [1], the Emax amounted to 93% and the EC50 was 39.8 nM.

Regarding `Cc1cc(C(N)=O)ccc1-c1cccc(C(O)CCN2CCC(=O)N2CCc2ccc(-c3nnn[nH]3)cc2)c1` (single isomer, unassigned) [9; isomer 2], in data set [1], the EC50 was 0.251 nM and the cAMP human EP4 Emax worked out at 96%. Moreover, in data set [2], the Papp A→B at 1 h, 10 μM is < 0.1 ×10⁻⁶ cm/s.

For the origin of these results see patent publication US20260125347A1, “l,2-SUBSTITUTED 3-OXOPYRAZOLIDINE DERIVATIVES AS PROSTAGLANDIN E2 RECEPTOR 4 (EP4) AGONISTS FOR THE TREATMENT OF GASTROINTESTINAL AND PULMONARY DISEASES” (NXERA PHARMA UK LIMITED, priority 2022, published 2026).
